# Measurements as given in US5496855A, “Anti-inflammatory compounds” (SmithKline Beecham Corp., priority 1995, dated 1996).
# Where two headings read alike, the source gives them in different places.
# Experiments:
# [1] = test system: TPA-induced Mouse Ear Inflammation; assay: Assay (g): TPA-induced mouse ear inflammation (ear edema, MPO); format: in vivo; settings: for TPA % change in edema / change in MPO, TPA model: topical, standard inhibitors at doses of 0.2, 0.1 and 0.3 respectively
# Method: (§1) Male Balb/c inbred mice are obtained from Charle River Breeding Laboratories (Kingston, N.Y.). Within a single experiment mice (22-25 g) are age-matched. These in vivo experiments typically involve the use of 5-6 animals/group.
# TPA (12-0-tetradecanoylphorbol 13-acetate) (Sigma Chemical Company) in acetone ([…]) is applied to the inner and outer surfaces of the left ear of BALB/c male mice. The thickness of both ears is then measured with a dial micrometer (Mitutoyo, Japan) at both 2 and 4 hours after treatment, and the data expressed as the change in thickness (10^-3 cm) between treated and untreated ears. […] After measuring the edema, the inflammed left ears are removed and stored at -70° C. until they were assayed for MPO (myeloperoxidase) activity where appropriate.
# (§2) On the day of the assay, partially thawed ear tissues are minced and then homogenized (10% w/v) with a Tissumizer homogenizer (Tekmar Co.) in 50 mM phosphate buffer (pH 6) containing 0.5% HTAB. The tissue homogenates are taken through three cycles of freeze-thaw, followed by brief sonication (10 sec). The method of Bradley et at. is used with modifications as described. […] Supernatant MPO activity is quantified kinetically (change in absorbance measured over 3 min, sampled at 15-sec intervals) using a Beckman DU-7 spectrophotometer and a Kinetics Analysis package (Beckman Instruments, Inc.). One unit of MPO activity is defined as that degrading one micromole of peroxide per minute at 25° C.
# Statistical analysis is done using Student's "t" test.
# human neutrophils [2] = assay: Assay (c): Arachidonic acid release assay, A23187-stimulated neutrophils; format: cell-based; settings: at levels greater than 10 uM
# Method: Human neutrophils are obtained in the laboratory using three different methods. One method uses leukophoresis packs from normal humans and neutrophils are isolated using the histopaque-1077 technique. The blood is centrifuged at 300×g for 10 minutes. The cell pellets are resuspended in PBS composed of 137 mM NaCl, 8.8 mM Na2HPO4, 1.5 mM KH2PO4, 2.7 mM KCI (Dulbecco's Gibco Laboratories, Long Island, N.Y.) and layered over histopaque-1077 (Sigma, St. Louis, Mo.). The pellets are collected after centrifugation (300×g for 30 minutes) and washed once in PBS. The cell pellets are exposed briefly to deionized water to lyse any erythrocytes. The remaining cells are collected by centrifugation, suspended in PBS, counted and identified after cytospinning and staining. The final leukocyte preparation will be of greater than 95% purity and viability.
# The second method isolates human neutrophils from fresh heparinized normal blood using the Histopaque-1077 technique. […] The remaining cells are collected by centrifugation, suspended in PBS, counted and identified after cytospinning and staining. […]
# The third method isolates human neutrophils from freshly drawn heparinized normal blood using the Percoil technique. […] The neutrophils are suspended in PBS, counted and identified after cytospinning and staining. […]
# [3] = test system: Arachidonic acid induced ear inflammation; assay: Assay (h): Arachidonic acid induced ear inflammation (ear edema, MPO); format: in vivo, mouse; settings: for AA % change in edema / change in MPO, AA model: topical, standard inhibitors at doses of 0.2, 0.1 and 0.3 respectively
# Method: as §1, §2
# Arachidonic acid is dissolved in acetone (1 mg/ear) to the left ear of BALB/c male mice. The thickness of both cars is measured with a constant pressure thickness guage 1 hour after treatment and the data expressed as the change in thickness between treated and untreated ears. Test compounds or vehicle are given at the time of AA application. The inflammatory cell infiltration is measured by MPO activity as described above in the TPA ear edema assay. After the edema measurements are made, the inflamed ears are removed and assayed for MPO activity.
# human monocytes = assay: Assay (f): stimulated eicosanoid (PGE2, LTC4) release by human monocytes; format: cell-based; settings: human monocyte cells, A23187
# Method: Leukocyte-rich leukopaks obtained from Biological Specialties (Lansdale, Pa.) are collected from male volunteers who are not taking anti-inflammatory drugs. Leukopaks are centrifuged (90×g for 15 min) twice to remove the platelet-rich plasma. The cell pellet is washed by centrifugation and are resuspended in HBSS without Ca^2+ or Mg^2+. Histopaque 1077 is layered under the cell suspension and centrifuged at 400×g for 30 min to obtain the buffy coat. The interfacial buffy coat, containing monocytes and lymphocytes, is removed and saved. The buffy coat is washed twice with HBSS without Ca^2+ or Mg^2+ by centrifugation. The cell pellet (4-6×10^8 cells/30 mls) is resuspended in iso-osmotic media (RPMI-1640, 10% heat inactivated fetal bovine serum (FBS), 0.2 mM L-glutamine, 2.5 mM HEPES) and layered over an equal volume of 46% Percol mixture (10×PBS/Percol; 9.25/0.75) and 54% iso-osmotic media and centrifuged for 30 min at 1000×g (Marshall and Roshak, Biochem. Cell Biol. 71: 331-339, 1993). The monocyte population located at the interface of the Percoll gradient is removed and washed twice in HBSS without Ca^2+ or Mg^2+.
# Monocytes (5×10^6 /ml are incubated as a suspension in serum-free RPMI-1640 medium containing the vehicle DMSO (<1%) or drug for 30 min at 27° C. after which vehicle or stimuli is added for the indicated time. The stimulating agent is solubilized in DMSO and appropriate vehicle controls are included in all experiments. The amount of stimuli is chosen from the linear portion of a concentration versus product curve usually representing 60-80% maximal stimulation over the indicated incubation time at 37° C. (A23187, 1 μM, (15 min). The reaction is terminated by reduction of pH through addition of citric acid and centrifugation (10 min, 400×g, 4° C.). Cell viability is monitored before and after experiments using trypan blue exclusion. The cell-free media is decanted and stored at -70° C. until analyzed. Prostaglandin E2 and LTC4 are directly measured in cell-free media using enzyme immunoassay (EIA) kits purchased from Caymen Chemical Co. (Ann Arbor, Mich.) Sample or standard dilutions are made with appropriate media and analyzed in triplicate. Results are obtained by extrapolation from a standard curve prepared in the media and expressed as pg or ng/ml of sample.
# CoA-IT = assay: Assay (b): CoA-IT activity in U937 cell microsomes; format: biochemical, human
# Excerpt: The following is a method to measure CoA-IT activity and the effects of compounds on CoA-IT activity. The assay is based upon mixing cellular material containing CoA-IT activity with a stable lyso phospholipid such as 1-alkyl-2-acyl-GPC and measuring the production of phospholipid product such as 1-alkyl-2-acyl-GPC occurring in the absence of added CoA or CoA-fatty acids.
# Any inflammatory cell that contains high levels of CoA-IT activity can be used, such as neutrophils, macrophages or cell lines such as U937 cells. U937 cells were obtained from American Type Culture Collection and grown in RPMI-1640 media (Gibco, Grand Island, N.Y.) supplemented with 10% fetal bovine serum (Hyclone, Logan, Utah) at 37° C., 5% CO2. Cells were grown without differentiation (basal state) by any agent, such as dimethyl sulfoxide. As used herein, "inflammatory cells" include, but are not limited to neutrophils, macrophages, monocytes, lymphocytes, eosinophils, basophils, and mast cells.
# Microsomes are prepared using standard techniques. […]
# CoA-IT activity is measured in 1.5 ml centrifuge tubes in a total volume of 100 ul. […] An aliquot of the chloroform-extracted materials are separated, usually by TLC in chloroform/methanol/acetic acid/water (50:25:8:4, v/v), visualized by radioscanning (Bioscan) and the product, [3H ]1-alkyl-2-acyl-GPC, is scraped and quantified by liquid scintillation spectroscopy. […]
# human neutrophils [4] = assay: Assay (d): Production of platelet-activating factor (PAF), A23187-stimulated neutrophils; format: cell-based
# Method: Blood is obtained from normal humans and neutrophils are isolated as described for the arachidonic acid release assay, above. The final leukocyte preparation should be of greater than 95% purity and viability.
# Neutrophils are suspended in PBS at concentrations of 5 to 20×10^6 cells per ml. Cells are added to test tubes and treated with the desired compounds for 5 to 10 minutes, then challenged with calcium ionophore A23187, 2 μM and 20-30 μCi of [3H]acetic acid (NEN-Dupont, Boston, Mass.), or the vehicle of PBS with 0.25-1 mg/ml. After 5 to 20 minutes, the reactions are terminated by addition of an equal volume of chloroform:methanol (1:2, v/v) to the samples and the lipiris are extracted by addition of equal volumes of chloroform and distilled water. The samples are vortexed and centrffuged at high speed and the chloroform layer removed to a clean tube.
# The chloroform from each tube is evaporated to dryness and the material suspended in a small volume of chloroform or chloroform:methanol (25-100 μl) and the total material spotted on a Silica TLC plate. The plates are developed in chloroform/methanol/acetic acid/water (50:25:8:4, v/v) visualized by radioscanning (Bioscan) and the product, [^3 H]PAF, is scraped and quantified by liquid scintillation spectroscopy. With this TLC system, the Rf value for a synthetic standard of PAF is approximately 0.33.
# rh Type II-14 kDa PLA2 = molecular target: T1, rh Type II-14 kDa PLA2 (Homo sapiens, UniProt P14555); assay: Assay (a): Phospholipase A2 assay, acylhydrolysis of [3H]-AA-E. coli; format: biochemical; settings: generally tested at 50 μm levels
# T1 sequence (P14555 21-144): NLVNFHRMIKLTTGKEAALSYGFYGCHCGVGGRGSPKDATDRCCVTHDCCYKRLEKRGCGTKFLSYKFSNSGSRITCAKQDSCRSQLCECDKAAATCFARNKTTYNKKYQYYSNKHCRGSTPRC
# Method: Phospholipase A2 activity of rh Type II-14 kDa PLA2 or PLA2 semi-purified from human synovial joint fluid was measured by the acylhydrolysis of high specific activity (NEN)[^3 H]-AA-E. coli (0.5 mCi/5nmol PL Pi) as previously described in Marshall et at., J. Rheumatology, 18:1, pp59-65 (1991). […] [Predominately used herein was rh Type II 14 kDa PLA2, or alternatively bovine pancreatic PLA2 was also be used]. The reaction mixture ([…] total volume) contained 25 mM HEPES, pH 7.4, 150 mM NaCl, 5 mM CaCl2 and [^3 H]-AA-E. coli (low specific activity; 5-8 nmol PL Pi per assay). Assays were incelbated for a time predetermined to be on the linear portion of a time versus hydrolysis plot. Experiments were conducted with final % hydrolysis values ranging from 2% (400-1000 dpm) to 10% (2000-5000 dpm) acylhydrolysis after blank correction. Reactions were terminated by the addition of 1.0 mL tetrahydrofuran (THF). […] Radiolabel in this eluate was quantitated by liquid scintillation counting. Results were expressed as % of fatty acid hydrolyzed ([sample dpms-non-specific (blank) dpms/total dpms]×100) or specific activity which was calculated from hydrolysis values found in the linear portion of time versus % hydrolysis plots (pmol free fatty acid hydrolyzed mg/min). […]
# [5] = read-out: IC50 for LTC4 release
SMILES,inhibitory activity in arachidonic acid release assay (human neutrophils [2]),IC50 (human monocytes; [5]) [nM],IC50 (human monocytes; read-out: IC50 of PGE2 release) [nM],PLA2 inhibition (rh Type II-14 kDa PLA2),TPA % change in edema [1] [%],"change in MPO, TPA model [1]",AA % change in edema [3] [%],"change in MPO, AA model [3]",further results
"NC(=O)N(O)CCC(CSc1ccc(Cc2ccccc2)cc1)NC(=O)CCCCCCc1ccccc1 (racemic) [Example 1, N-[3-(7-phenylheptylamido)-4-(4-phenylmethyl)phenylthio]-butyl-N-hydroxy urea]",weak inhibitory activity,220,< 100,positive PLA2 inhibition,,,,,"MPO activity, percent change, TPA ear model ([1]; topically, 1 mg/ear): -68%; ear swelling (edema), percent change, TPA ear model ([1]; topically, 1 mg/ear): -43%; inhibition of inflammatory cell infiltration, TPA ear model ([1]; typically dosed at 50 mg/ear): demonstrated activity as an inhibitor of the inflammatory cell infiltration; MPO, AA ear model ([3]; 1 mg/ear): -53%; reduction in ear swelling, AA ear model ([3]; 1 mg/ear): -36%; CoA-IT inhibitory activity (CoA-IT; generally tested at 50 μm levels): positive CoA-IT inhibitory activity; IC50 (human neutrophils [4]; Neutrophil, human neutrophils, A23187): ~10000 nM"
"N#CCC(CSc1ccc(Cc2ccccc2)cc1)NC(=O)CCCCCCc1ccccc1 (stereo not drawn) [Example 2, [3-(7-Phenylheptylamido)-4-(4-phenylmethyl)phenylthio]butylnitrile]",weak inhibitory activity,521,~100,positive PLA2 inhibition,,,,,CoA-IT inhibitory activity (CoA-IT; at levels of greater than 30 uM): did not demonstrate positive activity; inhibitory activity in PAF production assay (human neutrophils [4]; at greater than 30 uM): did not demonstrate positivr activity
"C[C@H](C(=O)O)c1ccc2cc(OCc3ccc4ccccc4n3)ccc2c1 [WY 50,295]",,,,,-18,-36,-50,-90,
C[C@@H]1C[C@H]2[C@@H]3CCC4=CC(=O)C=C[C@]4(C)[C@@]3(F)[C@@H](O)C[C@]2(C)[C@@]1(O)C(=O)CO [dexamethasone],,,,,-50,-54,-10,0,
CC(=O)O[C@H]1C[C@@H]2[C@@]3(C)CCCC(C)(C)[C@@H]3CC[C@@]2(C)[C@@H]2CC=C(C=O)[C@H](C=O)[C@@]12C [scalaradial],,,,,,-65,,-33,
